Target: Diamine acetyltransferase 1 (Mus musculus) (UniProt P48026)
Assay: Competitive inhibition at mouse recombinant SSAT expressed in Escherichia coli strain BL21(DE3)

Diamine acetyltransferase 1 (Mus musculus), sequence (P48026 whole entry, looked up): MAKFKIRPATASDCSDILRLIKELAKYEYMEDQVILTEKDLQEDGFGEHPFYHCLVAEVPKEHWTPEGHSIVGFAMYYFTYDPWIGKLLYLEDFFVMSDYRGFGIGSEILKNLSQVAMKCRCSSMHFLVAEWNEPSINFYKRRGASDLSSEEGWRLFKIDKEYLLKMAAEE

- Ki: 52 µM
Compound: CC(CCN)NCCCCN (stereo unspecified)

Source: BindingDB's records for doi:10.1021/jm200293r (University of Eastern Finland, 2011)
